Data: patent publication US4183929A, “Tri-substituted triazines” (American Cyanamid Company, priority 1978, dated 1980)

Columns and labels:
[1] = system: citrated sheep plasma (CSP); experiment: In vitro anti-coagulant activity (AC) test; format: biochemical; details: for AC Wells: Table I, twofold serial dilution, recalcified citrated sheep plasma; for In Vitro Activity Anti-Coagulant Activity (Wells) AC: Table II
Description: The sheep RBC's, kept in suspension throughout the slotting incubation time, become enmeshed in the fibrin matrix if a clot forms. Upon centrifugation of the plate, untrapped RBC's form buttons, the sizes of which correspond to the degree of clot inhibition; this providing a measure of anti-coagulant activity (AC).

[2] = system: late components of human complement (C3-C9); experiment: Test, Code 035 (C3-C9 inhibitor), lysis of EAC 142; format: biochemical; details: Table I; twofold serial dilution
Excerpt: (§1) An active inhibitor protects C2 from C1 and C4; (ii) Test, Code 035 (C3-C9 inhibitor) - This test determines the ability of the late components of human complement (C3-C9) to lyse EAC 142 in the presence of appropriate dilutions of the test compound. An active inhibitor protects EAC 142 from lysis by human C3-C9; (iii) Test, Code 036 (C-Shunt inhibitor) - In this test human erythrocytes rendered fragile are lysed in autologous serum via the shunt pathway activated by cobra venom factor in the presence of appropriate dilutions of the test compound. Inhibition of the shunt pathway results in failure of lysis; (iv) Forssman Vasculitis Test - Here, the well known complement dependent lesion, Forssman vasculitis, is produced in guinea pigs by intradermal injection of rabbit anti-Forssman antiserum. The lesion is measured in terms of diameter, edema and hemorrhage and the extent to which a combined index of these is inhibited by prior intraperitoneal injection of the test compound at 200 mg is then reported, unless otherwise stated; (v) Forssman Shock Test--Lethal shock is produced in guinea pigs by an i.v. injection of anti-Forssman antiserum and the harmonic mean death time of treated guinea pigs is compared with that of simultaneous controls; (vi) Complement Level Reduction Test - In this test, the above dosed guinea pigs, or others, are bled for serum and the complement level is determined in undiluted serum by the capillary tube method of U.S. Pat. No. 3,876,376 and compared to undosed control guinea pigs; and (vii) Cap 50 Test - Here, appropriate amounts of the test compound are added to a pool of guinea pig serum in vitro, after which the undiluted serum capillary tube assay referred to above is run. The concentration of compound inhibiting 50% is reported.

activated human C1 = target: T1, activated human C1 (Homo sapiens, UniProt P09871); experiment: Test, Code 026 (C1 inhibitor); format: biochemical; details: for Cl 026 Wells: Table I, twofold serial dilution, higher well number indicates higher activity; for In Vitro Activity Complment Inhibiting Activity (Wells) Code 026: Table II
T1 construct: fluid-phase human C2 consumption with C4 present
Excerpt: as §1

shunt pathway = experiment: Test, Code 036 (C-Shunt inhibitor), lysis of human erythrocytes via cobra venom factor activated shunt pathway; format: cell-based; details: Table I; twofold serial dilution
Excerpt: An active inhibitor protects C2 from C1 and C4; (ii) Test, Code 035 (C3-C9 inhibitor) - This test determines the ability of the late components of human complement (C3-C9) to lyse EAC 142 in the presence of appropriate dilutions of the test compound. An active inhibitor protects EAC 142 from lysis by human C3-C9; (iii) Test, Code 036 (C-Shunt inhibitor) - In this test human erythrocytes rendered fragile are lysed in autologous serum via the shunt pathway activated by cobra venom factor in the presence of appropriate dilutions of the test compound. Inhibition of the shunt pathway results in failure of lysis; (iv) Forssman Vasculitis Test - Here, the well known complement dependent lesion, Forssman vasculitis, is produced in guinea pigs by intradermal injection of rabbit anti-Forssman antiserum. […]

[3] = Intrinsic Therapeutic Index (ITI) from Code 026 and AC wells; details: Table II; for Logarithmic Difference Expressed As Wells: Code 026 wells minus AC wells (base 2); for Intrinsic Therapeutic Index: antilogarithm (base 2) of the difference of Code 026 and AC wells
Excerpt: The computation of an Intrinsic Therapeutic Index (ITI) was devised to correlate the results expressed in wells obtained in the in vitro Code 026 (C1 inhibitor) test and the in vitro anti-coagulant (AC) test into a meaningful value which would aid in the net evaluation of the activity of the compounds of this invention.
The ITI is thus a measure of the separation of anti-complement and anti-coagulant activities; the higher the numerical value the more therapeutically useful the separation of activities.

T1 sequence (P09871 16-688): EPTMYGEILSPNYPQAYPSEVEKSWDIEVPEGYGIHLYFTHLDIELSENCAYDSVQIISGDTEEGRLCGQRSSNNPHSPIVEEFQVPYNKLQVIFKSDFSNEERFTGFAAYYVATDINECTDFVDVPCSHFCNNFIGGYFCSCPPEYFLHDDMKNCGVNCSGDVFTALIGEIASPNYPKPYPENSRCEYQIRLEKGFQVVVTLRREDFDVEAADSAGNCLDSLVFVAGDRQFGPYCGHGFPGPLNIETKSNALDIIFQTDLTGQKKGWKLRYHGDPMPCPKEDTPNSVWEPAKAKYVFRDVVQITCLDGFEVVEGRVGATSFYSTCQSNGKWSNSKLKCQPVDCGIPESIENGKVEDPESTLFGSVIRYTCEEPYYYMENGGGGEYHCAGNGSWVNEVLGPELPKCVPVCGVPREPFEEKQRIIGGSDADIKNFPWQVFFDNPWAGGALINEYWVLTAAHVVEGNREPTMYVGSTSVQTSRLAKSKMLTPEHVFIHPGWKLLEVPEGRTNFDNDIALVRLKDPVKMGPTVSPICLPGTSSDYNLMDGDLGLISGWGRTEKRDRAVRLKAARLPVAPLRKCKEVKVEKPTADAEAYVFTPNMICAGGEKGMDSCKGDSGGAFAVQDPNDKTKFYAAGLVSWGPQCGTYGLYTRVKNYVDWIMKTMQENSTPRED
T1 sequence (P00736 18-705 partner): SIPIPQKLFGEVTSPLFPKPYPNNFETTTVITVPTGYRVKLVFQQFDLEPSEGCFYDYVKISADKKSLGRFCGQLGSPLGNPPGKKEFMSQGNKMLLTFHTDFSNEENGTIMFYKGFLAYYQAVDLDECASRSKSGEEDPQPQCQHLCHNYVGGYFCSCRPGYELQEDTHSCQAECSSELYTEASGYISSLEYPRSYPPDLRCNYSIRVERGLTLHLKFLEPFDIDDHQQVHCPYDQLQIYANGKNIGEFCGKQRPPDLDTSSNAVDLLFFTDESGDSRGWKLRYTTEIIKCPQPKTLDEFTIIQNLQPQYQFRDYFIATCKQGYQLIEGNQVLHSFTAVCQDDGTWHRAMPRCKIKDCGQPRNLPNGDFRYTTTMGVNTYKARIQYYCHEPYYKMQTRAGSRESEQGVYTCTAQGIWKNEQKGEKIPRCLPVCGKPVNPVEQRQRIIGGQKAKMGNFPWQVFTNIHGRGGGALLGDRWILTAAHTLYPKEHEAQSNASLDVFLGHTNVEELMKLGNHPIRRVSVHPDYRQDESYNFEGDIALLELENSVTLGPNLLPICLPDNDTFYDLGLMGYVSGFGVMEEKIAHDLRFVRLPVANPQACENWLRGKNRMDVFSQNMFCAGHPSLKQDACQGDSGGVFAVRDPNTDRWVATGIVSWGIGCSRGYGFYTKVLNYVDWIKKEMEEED
T1 sequence (P02745 23-245 partner): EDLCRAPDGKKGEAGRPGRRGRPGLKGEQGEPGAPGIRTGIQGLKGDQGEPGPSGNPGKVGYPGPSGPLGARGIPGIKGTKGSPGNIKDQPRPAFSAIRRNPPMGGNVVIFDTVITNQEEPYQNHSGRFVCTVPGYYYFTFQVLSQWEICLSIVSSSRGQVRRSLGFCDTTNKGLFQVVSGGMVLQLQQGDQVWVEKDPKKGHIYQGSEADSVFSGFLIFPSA
T1 sequence (P02746 28-253 partner): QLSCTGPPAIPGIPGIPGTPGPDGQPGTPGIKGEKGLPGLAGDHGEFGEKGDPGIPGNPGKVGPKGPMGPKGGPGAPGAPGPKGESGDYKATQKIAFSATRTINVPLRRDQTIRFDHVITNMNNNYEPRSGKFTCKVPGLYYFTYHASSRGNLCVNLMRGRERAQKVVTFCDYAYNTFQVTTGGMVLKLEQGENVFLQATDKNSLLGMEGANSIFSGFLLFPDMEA
T1 sequence (P02747 29-245 partner): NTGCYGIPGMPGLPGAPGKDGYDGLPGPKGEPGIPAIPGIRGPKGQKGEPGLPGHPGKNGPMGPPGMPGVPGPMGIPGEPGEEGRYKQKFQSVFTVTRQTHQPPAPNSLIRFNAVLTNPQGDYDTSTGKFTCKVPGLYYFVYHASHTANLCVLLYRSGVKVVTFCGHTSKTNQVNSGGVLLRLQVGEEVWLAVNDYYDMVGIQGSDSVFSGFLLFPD

Structure (SMILES)	AC Wells [1]	In Vitro Activity Anti-Coagulant Activity (Wells) AC [1]	C-Late 035 Wells [2]	Cl 026 Wells (activated human C1)	In Vitro Activity Complment Inhibiting Activity (Wells) Code 026 (activated human C1)	Shunt Inhibition 036 Wells (shunt pathway)	Logarithmic Difference Expressed As Wells [3]	Intrinsic Therapeutic Index [3]
O=C([O-])c1cc(Nc2nc(Nc3cc(C(=O)[O-])cc(C(=O)[O-])c3)nc(Nc3cc(C(=O)[O-])cc(C(=O)[O-])c3)n2)cc(C(=O)[O-])c1.[Na+].[Na+].[Na+].[Na+].[Na+].[Na+] [5,5',5"-(s-Triazine-2,4,6-triyltriimino)triisophthalic acid hexasodium salt]	-2 Wells	-2 Wells	N	–	–	–	–	–
O=C([O-])c1cc(Nc2nc(Cl)nc(Nc3cc(C(=O)[O-])cc(C(=O)[O-])c3)n2)cc(C(=O)[O-])c1.[Na+].[Na+].[Na+].[Na+] [5,5'-[(6-Chloro-s-triazine-2,4-diyl)diimino]-diisophthalic acid tetrasodium salt]	< -2 Wells	-2 Wells	N	+3 Wells	+3 Wells	N	+5 Wells	32
O=C(O)CN(CC(=O)O)c1nc(N(CC(=O)O)CC(=O)O)nc(N(CC(=O)O)CC(=O)O)n1 [(s-Triazine-2,4,6-triyltrinitrilo)hexaacetic acid]	-2 Wells	-2 Wells	N	+3 Wells	+3 Wells	N	+5 Wells	32
